Measurements from patent US7541446B2, “Tet repressor-based transcriptional regulatory proteins” (Tet Systems Holding GmbH & Co. KG, priority 1999, dated 2009).

Columns and labels:
Format in all cases: cell-based
[1] = system: GFP controlled by a tTA/rtTA responsive promoter; assay: rtTA dependent GFP fluorescence in S. cerevisiae; conditions: for basal activity (GFP fluorescence in the absence of inducer): excitation 490 nm, emission 512 nm
Excerpt: Thus, a plasmid, designated pCM190GFP+, was constructed which contains the following elements: • the coding sequence for GFP controlled by a tTA/rtTA responsive promoter; • a tTA/rtTA encoding sequence that is constitutively expressed; • the URA3 marker that allows selection in appropriate yeast strains; • the replication function of the 2μ episome of S. cerevisiae. Unique endonuclease cleavage sites allow for the removal of the TetR, the activation domain, or the entire tTA encoding sequences, typically replaced by pools of mutagenized alleles obtained as described previously (Leung et al., 1989).
The gene encoding GFP was cloned into the multiple cloning site of pCM190 (Gari et al., 1997) to serve as an indicator of rtTA activity, yielding plasmid pCM190GFP+. The TetR portion of tTA was amplified for mutagenesis with two oligonucleotide primers, 5′-[…] (SEQ ID NO:46), and 5′-[…] (SEQ ID NO:47), from the vector pCM190 as described (Leung et al., 1989). The PCR-fragments and pCM190-GFP+ were restricted with XbalI and BsiWI and purified. The PCR-fragments and the vector were then ligated and transformed into E. coli DH5α. Several thousand E. coli clones were co-cultured, and their plasmid pools were prepared and transformed into S. cerevisiae using the LiAc-method (Ito et al., 1983). […]
Accordingly, the resulting uracil-prototroph yeast clones were replica plated on minimal medium without uracil containing either Tc and/or Dox and scored after growth for two to three days at 30° C. using long wavelength UV-light to excite GFP fluorescence. […] The GFP fluorescence is shown on a logarithmic scale on the left axis. Fluorescence intensities are shown for each transactivator in the absence of inducer, in the presence of 10 μg/ml of Tc, and/or in the presence of 10 μg/ml of Dox. […]
S. cerevisiae strains containing rtTA-34R, rtTA-44R and a GFP^31 strain, as well as strains containing the original tTA and rtTA were grown overnight in minimal medium. […] The light emission of these cells was scored in a fluorimeter using an excitation wavelength of 490 nm and recording emission at 512 nm. […]

[2] = system: luciferase reporter construct pUHC13-3; assay: Doxycycline-dependent regulation of luciferase in HeLa cell lines stably producing the transactivator, reporter pUHC13-3 transiently transfected
Excerpt: In order to generate cell lines that maintain the plasmid episomally and thus produce the transactivator over extended periods of time, the transcription unit containing the rtTA-34R coding sequence controlled by the hCMV promoter was inserted into […] (Invitrogen, Carlsbad, USA) from which the RSV promoter had been excised. […] HeLa cells were transfected with the plasmid pCEP4-rtTA-34R, and clones isolated via G418 selection. Clones stably producing the transactivator were selected and tested for their ability to activate transcription from the transiently transfected luciferase reporter construct pUHC13-3 in the presence and absence of Dox.
Upon addition of 5 μg/ml of Dox, luciferase activity is induced up to 600 fold. In comparison to the HeLa cell line HR5 harboring chromosomal copies of the rtTA gene (Gossen et al., 1995), the background level is reduced. […] This leads to a several hundred fold induction of gene expression in the case of the rtTA-34R clones whereas in HR5 cells rtTA achieves only a 20 to 30 fold induction under these conditions.

[3] = system: luciferase gene controlled by Ptet; assay: rtTA-dependent luciferase expression in transiently cotransfected HeLa cells (pUHC13-3); conditions: for induction of luciferase activity compared to rtTA: 5 μg/ml Tc or Dox; for reverse phenotype: transient expression, luciferase
Protocol: rtTA-34R and rtTA-44R were then recloned into pUHD15-1 (Gossen & Bujard, 1992), replacing the respective portions of tTA. HeLa cells were transiently cotransfected with plasmids pUHC13-3, encoding the luciferase gene controlled by Ptet (Gossen & Bujard, 1992), and the pUHD15-1 plasmids containing the genes of the respective transactivators. Luciferase activities were measured in absence (light column) and presence of 5 μg/ml of the effectors tetracycline (Tc, light grey) or doxycycline (Dox, dark grey). On the X axis, (−) corresponds to control HeLa cells into which no DNA was transferred. […] The increased regulation factor observed results from both a lower basal and a higher induced activity.
To obtain additional information about the role of the mutated residues, we separated the mutations at positions 19 and 56 from those at 139, 148 and 179. The resulting proteins are called rtTA-1956R and rtTA-148179R. The activation potential of rtTA-1956R and rtTA-148179R was assessed in transient expression experiments. Plasmids encoding the respective rtTA variants were cotransfected with the pUHC13-3 luciferase indicator plasmid into HeLa cells and the luciferase activity was determined.

[4] = system: Ptet-luciferase expression unit; assay: Dox dependent luciferase activity in stably transfected HeLa cells (X1/6-34R-FFFF, HR5-CL11); conditions: X1/6-34R-FFFF or HR5-CL11
Excerpt: The coding sequence of rTetR-34R was fused with a DNA encoding four minimal activation domains (FFFF)(Baron et al., 1997) by insertion into a proper pUHD vector to generate plasmid […]. HeLa cell line X1/6 was transfected with plasmid pUHrT5 1-1 carrying the rtTA-34R-FFFF gene under the control of PhCMv. The resulting HeLa cell line X1/6-34R-FFFF contains, in addition, the Ptet-luciferase expression unit in a “silent but activatable” locus.
Cell lines derived from various clones that contain pUHrT51-1 stably inserted into the genome where it is constitutively expressed were isolated via hygromycin-B selection and analyzed for Dox dependent luciferase activity. […] This is most likely due to the residual affinity between rtTA and tetO.

[5] = cell line HeLa 0.34R-16, episomal pCEP4-rtTA-34R
[6] = cell line HeLa 0.34R-33, episomal pCEP4-rtTA-34R
[7] = cell line HeLa 0.34R-36, episomal pCEP4-rtTA-34R
[8] = cell line HeLa HR5 (Tet on), chromosomal copies of the rtTA gene

rtTA-34R: rtTA sequence variant E19G, A56P, H139H (silent), D148E, H179R; aa = SEQ ID NO:2
basal activity (GFP fluorescence in the absence of inducer) [1]: clearly lower as compared to rtTA | induced level of luciferase in comparison to HR5 ([2]; 5 μg/ml of Dox, rtTA-34R HeLa clones): significantly elevated | induction of luciferase activity ([2]; 5 μg/ml of Dox, rtTA-34R HeLa clones, rtTA in HR5 cells): up to 600 fold | factor of induction ([2]; cell line HeLa 0.34R-16): 600 | Luciferase activity (RLU/μg protein) with Dox [2, 5]: 540 ± 50 RLU/μg protein | Luciferase activity (RLU/μg protein) without Dox [2, 5]: 323600 ± 69470 RLU/μg protein | factor of induction ([2]; cell line HeLa 0.34R-33): 200 | Luciferase activity (RLU/μg protein) with Dox [2, 6]: 360 ± 140 RLU/μg protein | Luciferase activity (RLU/μg protein) without Dox [2, 6]: 74620 ± 3230 RLU/μg protein | factor of induction ([2]; cell line HeLa 0.34R-36): 200 | Luciferase activity (RLU/μg protein) with Dox [2, 7]: 430 ± 50 RLU/μg protein | Luciferase activity (RLU/μg protein) without Dox [2, 7]: 87000 ± 7820 RLU/μg protein | background level of luciferase in comparison to HR5 ([2]; without Dox, rtTA-34R HeLa clones): reduced | induction of luciferase activity compared to rtTA [3]: even higher induction of luciferase activity as compared to rtTA | reverse phenotype [3]: improved reverse phenotype

rtTA-44R: rtTA sequence variant T26A, D95G; aa = SEQ ID NO:13
basal activity (GFP fluorescence in the absence of inducer) [1]: clearly lower as compared to rtTA | induction of luciferase activity compared to rtTA [3]: not improved over rtTA | reverse phenotype [3]: shows a reverse phenotype

rtTA-1956R: rtTA sequence variant E19G, A56P; aa = SEQ ID NO:7
reverse phenotype [3]: sufficient for the reverse phenotype

rtTA: original reverse tetracycline controlled transactivator (Gossen et al., 1995), parent, SEQ ID NO: 22/23 [reference compound]
induction of luciferase activity by Dox [4]: about 700 fold | luciferase activity in the absence of Dox [4]: significant background luciferase activity | induction factor of expression ([1]; GFP fluorescence, Tc or Dox 10 μg/ml): 40 fold | factor of induction ([2]; cell line HeLa HR5 (Tet on)): 27 | Luciferase activity (RLU/μg protein) with Dox [2, 8]: 920 ± 170 RLU/μg protein | Luciferase activity (RLU/μg protein) without Dox [2, 8]: 26400 ± 4030 RLU/μg protein
